{"source": "patent US8053585B2", "about": "“Protecting group for carboxylic acids that can be photolyzed by visible light” (Cornell Research Foundation, Inc., priority 2006, dated 2011)", "tested_on": "GluR6 glutamate receptor", "assay": "Whole-cell current recording with cell-flow method, HEK 293 cells expressing GluR6", "type": "cell-based", "source_text": "In whole-cell current recording experiments with DECM-caged glutamate, HEK 293 cells stably transfected with cDNA encoding the GluR6 were used. In whole-cell current recording experiments with DECM-caged glycine, HEK 293 cells were transiently transfected with the cDNA of the α1-subunit of the human glycine receptor by using the Polyfect™ transfection reagent (Qiagen GmbH, D-40724, Hilden, Germany). The cDNA of the α1-subunit was kindly provided by Professor H. Betz (Max-Plank-Institute for brain Research, Frankfurt, Germany). The cells were co-transfected with cDNA encoding the green fluorescent protein (pGreen Lantern plasmid, Life Technologies, Gaitherberg, Md.) to detect transfected cells (Chalfie et al., “Green Fluorescent Protein as a Marker for Gene Expression,” Science 263:802-805 (1994), which is hereby incorporated by reference in its entirety).\nThe cells were used for electrophysiological experiments between 24 and 72 h after each passage. Whole-cell currents evoked by glutamate or glycine (100 μM) were recorded using the whole-cell configuration (Hamill et al., “Improved Patch-Clamp Techniques for High-Resolution Current Recording From Cells and Cell-Free Membrane Patches,” Pfluegers Arch 391:85-100 (1981), which is hereby incorporated by reference in its entirety) at room temperature, −60 mV, and pH 7.4. The experiments using DECM-caged glutamate were carried out in the absence or presence of 2 mM DECM-caged glutamate (FIG. 5A) or 1 mM 7-N,N-diethylamino-4-hydroxymethylcoumarin (2) (FIG. 5B). Alternatively, the experiments using DECM-caged glycine were carried out in the absence or presence of 1 mM DECM-caged-glycine (FIG. 10). The solution in the recording pipet contained 120 mM CsCl, 10 mM EGTA, and 10 mM HEPES, adjusted to pH 7.4. The HEK cell bath solution contained 150 mM NaCl, 1 mM CaCl2, 10 mM HEPES, pH 7.4. The resistance of the recording electrode filled with buffer solution was typically 3-5 MΩ and the series resistance was 5-6 MΩ. The cells were held at a constant transmembrane voltage of −60 mV and room temperature (22° C.). […]", "data": [{"smiles": "CCN(CC)c1ccc2c(COC(=O)CCC(N)C(=O)O)cc(=O)oc2c1", "note": "(centres unmarked) [DECM-caged glutamate, (7-N,N-Diethylaminocoumarin-4-yl)-methyl-glutamate-trifluoroacetate]", "values": [{"measurement": "whole-cell current evoked by 100 μM glutamate, presence vs absence of compound", "setting": "2 mM DECM-caged glutamate, −60 mV, pH 7.4, 22° C.", "result": "do not inhibit"}, {"measurement": "biological activity at glutamate receptors (inhibition or activation)", "setting": "HEK-293 cells expressing glutamate receptors", "result": "biologically inert"}]}]}
